# Experimental data reported in patent US20160016907A1, “PYRIDINE DERIVATIVES AS MUSCARINIC M1 RECEPTOR POSITIVE ALLOSTERIC MODULATORS” (PFIZER INC., priority 2014, published 2016).
# Molecular target: T1, human M1 muscarinic acetylcholine receptors (Homo sapiens, UniProt P11229)
# T1 sequence (P11229 1-460): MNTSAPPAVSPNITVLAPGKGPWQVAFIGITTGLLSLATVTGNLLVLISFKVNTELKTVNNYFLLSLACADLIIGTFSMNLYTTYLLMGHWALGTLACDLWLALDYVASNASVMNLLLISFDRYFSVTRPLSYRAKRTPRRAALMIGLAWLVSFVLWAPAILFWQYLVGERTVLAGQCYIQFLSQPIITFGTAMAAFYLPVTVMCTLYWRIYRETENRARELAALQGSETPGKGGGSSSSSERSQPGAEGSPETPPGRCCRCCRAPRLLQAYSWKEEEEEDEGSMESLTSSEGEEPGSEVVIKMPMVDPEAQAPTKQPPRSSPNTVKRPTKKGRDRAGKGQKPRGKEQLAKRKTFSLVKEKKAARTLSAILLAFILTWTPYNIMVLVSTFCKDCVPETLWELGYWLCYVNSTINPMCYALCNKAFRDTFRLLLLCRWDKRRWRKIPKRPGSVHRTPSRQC
# Assay: M1 FLIPR assay (PAM, intracellular calcium)
# Type: cell-based
# Conditions: potentiation of EC10-EC30 acetylcholine, values marked a: geometric mean of ≧7 determinations, read-out: M1 PAM Inflection Point (μM) Geometric mean of 2-6 determinations (unless otherwise indicated)
# Description: This assay was designed to select and characterize compounds that affect the activity of human M1 muscarinic acetylcholine receptors (Similar M1 PAM FLIPR assays can be found, for example, at U.S. Pat. No. 8,664,234). Human M1 receptors were stably expressed in Chinese hamster ovary (CHO) cells (HD Bioscience). The effect of test compounds on intracellular calcium was measured on an FLIPR Tetra (Molecular Devices) using the Fluo-8, AM calcium dye (Molecular Probes) with a red dye quenching agent (Sigma).
# CHO cells expressing hM1 cells had been previously cultured and frozen in assay ready vials. Cell vials were thawed, then plated at a density of 10,000 cells per well in a 384 well black wall, clear bottom plate (Greiner #781090) and incubated overnight at 37 degrees C. with 5% CO2. Cells were grown and plated in F12 nutrient media (Gibco BRL #21700-075) supplemented with 10% FBS (Hyclone #CH30160.03) and Pen/Strep (Gibco #15070-063).
# After overnight incubation, cell plates were removed from the incubator and the growth media was discarded and replaced with loading solution containing the following: 2 μM Fluo-8-AM (Molecular Probes #F14242), 2 mM Probenecid (Sigma #P8761), lx Acid Red 1 (Sigma #210633), in HBSS buffer containing (grams/L): 0.1 CaCl2, 0.1 MgCl2*6H2O, 0.049 MgSO4, 0.4 KCl, 0.06 KH2PO4, 8.06 NaCl, 0.12 Na2HPO4*12H2O, 1.1 D-glucose*H2O, 0.35 NaHCO3, 4.766 HEPES, pH 7.4. The plate was incubated in the loading solution at 37 degrees C. in the dark for 1 hour.
# Test compounds were initially prepared as 100% DMSO stock solutions, then transferred and serially diluted in 384-well compound plates (Greiner #784201). Each compound was tested at 10 concentrations in duplicate per experiment. Positive and negative controls for positive allosteric modulator evaluation were 30 μM acetylcholine (Ach) and an EC10-EC30 concentration of acetylcholine, approximately 2 nM but could be adjusted for each experiment to maintain the EC10-EC30 range.
# After the 1-hour dye loading incubation, test compounds were added to the cell plate containing Fluo-8. Approximately 10 minutes after compound addition, an EC10-EC30 concentration of acetylcholine was added to each well and the fluorescence measured to determine the PAM potentiation of the compound.
# Data was exported from the FLIPR Tetra as maximum fluorescence/minimum fluorescence for each well. The percent effect for each compound well was determined using the mean values for the positive and negative controls on each plate for each read. Percent effect was 100*(compound negative control)/(positive control negative control). Dose response curves were fitted to the compound percent effect data using a 4-parameter logistic fit model to determine PAM (positive allosteric modulator) Inflection Point values. Compounds with inverted U dose response curves had the concentrations greater than the concentration giving the peak response excluded from the fit. Data was reported as Inflection Point. The compounds of Examples 1-72 had activity according to this assay, generally with an Inflection Point (IP) of 10 μM or less (using Inflection Point as a measure of activity). Such a result is indicative of the intrinsic activity of the compounds of the invention as M1 allosteric modulators.
row,EC50 [µM],SMILES
1,0.198,"O=C(N[C@H]1CCOC[C@@H]1O)c1cc(Cc2ccc(-n3cccn3)cc2)c(C(F)F)cn1 [Example 54, 5-(difluoromethyl)-N-[(3R,4S)-3-hydroxytetrahydro-2H-pyran-4-yl]-4-[4-(1H-pyrazol-1-yl)benzyl]pyridine-2-carboxamide]"
2,> 9.12,"Cc1cnc(C(=O)N[C@H]2CCOC[C@@H]2O)cc1[C@@H](F)c1ccc(-n2cccn2)cc1 [Example 55, 4-{(S)-Fluoro[4-(1H-pyrazol-1-yl)phenyl]methyl}-N-[(3R,4S)-3-hydroxytetrahydro-2H-pyran-4-yl]-5-methylpyridine-2-carboxamide]"
3,0.03,"Cc1cnc(C(=O)N[C@H]2CCOC[C@@H]2O)cc1[C@H](F)c1ccc(-n2cccn2)cc1 [Example 56, 4-{(R)-Fluoro[4-(1H-pyrazol-1-yl)phenyl]methyl}-N-[(3R,4S)-3-hydroxytetrahydro-2H-pyran-4-yl]-5-methylpyridine-2-carboxamide]"
4,0.144,"Cc1cnc(C(=O)N[C@H]2CCOC[C@@H]2O)cc1Cc1ccc(-c2cocn2)cc1 [Example 57, N-[(3R,4S)-3-Hydroxytetrahydro-2H-pyran-4-yl]-5-methyl-4-[4-(1,3-oxazol-4-yl)benzyl]pyridine-2-carboxamide]"
5,0.086,"COc1cnc(C(=O)N[C@H]2CCOC[C@@H]2O)cc1Cc1ccc(-c2coc(C)n2)cc1 [Example 58, N-[(3R,4S)-3-Hydroxytetrahydro-2H-pyran-4-yl]-5-methoxy-4-[4-(2-methyl-1,3-oxazol-4-yl)benzyl]pyridine-2-carboxamide]"
6,0.116,"Cc1cnc(C(=O)N[C@H]2CCOC[C@@H]2O)cc1Cc1ccc(-c2cn(C)nc2C)cc1 [Example 61, 4-[4-(1,3-Dimethyl-1H-pyrazol-4-yl)benzyl]-N-[(3R,4S)-3-hydroxytetrahydro-2H-pyran-4-yl]-5-methylpyridine-2-carboxamide]"
7,0.129,"O=C(N[C@H]1CCOC[C@@H]1O)c1cc(Cc2ccc(-n3cccn3)cc2)c(OC(F)F)cn1 [Example 62, 5-(difluoromethoxy)-N-[(3R,4S)-3-hydroxytetrahydro-2H-pyran-4-yl]-4-[4-(1H-pyrazol-1-yl)benzyl]pyridine-2-carboxamide]"
8,0.18,"Cc1cnc(C(=O)N[C@H]2CCOC[C@@H]2O)cc1Cc1ccc(-c2cnn(C)c2)nc1 [Example 65, N-[(3R,4S)-3-hydroxytetrahydro-2H-pyran-4-yl]-5-methyl-4-{[6-(1-methyl-1H-pyrazol-4-yl)pyridin-3-yl]methyl}pyridine-2-carboxamide]"
9,0.114,"Cc1cnc(C(=O)N[C@H]2CCOC[C@@H]2O)cc1Cc1ccc(-c2cn[nH]c2)cc1 [Example 66, N-[(3R,4S)-3-hydroxytetrahydro-2H-pyran-4-yl]-5-methyl-4-[4-(1H-pyrazol-4-yl)benzyl]pyridine-2-carboxamide]"
10,0.052,"Cc1cnc(C(=O)N[C@H]2CCOC[C@@H]2O)cc1Cc1ccc(-c2cnn(C)c2)cc1 [Example 67, N-[(3R,4S)-3-hydroxytetrahydro-2H-pyran-4-yl]-5-methyl-4-[4-(1-methyl-1H-pyrazol-4-yl)benzyl]pyridine-2-carboxamide]"
11,0.074,"COc1cnc(C(=O)N[C@H]2CCOC[C@@H]2O)cc1Cc1ccc(-c2cscn2)cc1 [Example 68, N-[(3R,4S)-3-hydroxytetrahydro-2H-pyran-4-yl]-5-methoxy-4-[4-(1,3-thiazol-4-yl)benzyl]pyridine-2-carboxamide]"
12,0.048,"Cc1nc(-c2ccc(Cc3cc(C(=O)N[C@H]4CCOC[C@@H]4O)ncc3C)cc2)cs1 [Example 69, N-[(3R,4S)-3-hydroxytetrahydro-2H-pyran-4-yl]-5-methyl-4-[4-(2-methyl-1,3-thiazol-4-yl)benzyl]pyridine-2-carboxamide]"
13,0.104,"COc1cnc(C(=O)N[C@H]2CCCC[C@@H]2O)cc1Cc1ccc(-n2cccn2)cc1 [Example 70, N-[(1S,2S)-2-hydroxycyclohexyl]-5-methoxy-4-[4-(1H-pyrazol-1-yl)benzyl]pyridine-2-carboxamide]"
14,0.125,"COc1cnc(C(=O)N[C@H]2CCCC[C@@H]2O)cc1Cc1ccc(-c2cocn2)cc1 [Example 71, N-[(1S,2S)-2-hydroxycyclohexyl]-5-methoxy-4-[4-(1,3-oxazol-4-yl)benzyl]pyridine-2-carboxamide]"
15,0.142,"COc1cnc(C(=O)N[C@H]2CCCC[C@@H]2O)cc1Cc1ccc(-c2coc(C)n2)cc1 [Example 72, N-[(1S,2S)-2-hydroxycyclohexyl]-5-methoxy-4-[4-(2-methyl-1,3-oxazol-4-yl)benzyl]pyridine-2-carboxamide]"
